Holding throughout (details): in vivo
Data set [1] relates to Plasma. The data set can be described thus: Drug recovery in beagle dog plasma assessed as radiochemical peak area treated with 5 mg/kg, iv LY2090314 for 30 mins after 0.5 hrs by radio analysis. More on the design: dose 5 mg/kg, dosed compound name [14C]LY2090314, route intravenous. Type of data set: ADME, organism-based, Canis lupus familiaris.
For data set [2], the system named is Plasma. The data set can be described thus: Drug recovery in beagle dog plasma assessed as radiochemical peak area treated with 5 mg/kg, iv LY2090314 for 30 mins after 2 hrs by radio analysis. Type of data set: ADME, organism-based, Canis lupus familiaris. More on the design: dose 5 mg/kg, dosed compound name [14C]LY2090314, route intravenous.
Data set [3] can be described thus: Drug recovery in bile duct-cannulated Sprague-Dawley rat assessed as radioactivity in bile during 0 to 12 hrs treated with 5 mg/kg, iv LY2090314 for 30 mins. The class given is ADME, organism-based. Set-up: dose 5 mg/kg, dosed compound name [14C]LY2090314, route intravenous.
Data set [4] is described as follows: Drug recovery in bile duct-intact beagle dog assessed as radioactivity in feces during 0 to 48 hrs treated with 5 mg/kg, iv LY2090314 for 30 mins. The class given is ADME, organism-based, Canis lupus familiaris. Set-up: dose 5 mg/kg, dosed compound name [14C]LY2090314, route intravenous.
Data set [5] is described as follows: Drug recovery in po dosed human urine. The class given is ADME, organism-based. Set-up: dosed compound name Ruboxistaurin.
Data set [6] is described as follows: Drug recovery in po dosed human feces. The class given is ADME, organism-based. Set-up: dosed compound name Ruboxistaurin.
The nature of data set [7]: Drug recovery in po dosed rat feces. The class given is ADME, organism-based. More on the design: dosed compound name Ruboxistaurin.
Data set [8] in a line: Drug recovery in po dosed dog feces. The class given is ADME, organism-based, Canis lupus familiaris. More on the design: dosed compound name Ruboxistaurin.
A short description of data set [9]: Drug recovery in po dosed mouse urine. Type of data set: ADME, organism-based. Set-up: dosed compound name Ruboxistaurin.
The nature of data set [10]: Drug recovery in po dosed rat bile. Type of data set: ADME, organism-based. Set-up: dosed compound name Ruboxistaurin.
A short description of data set [11]: Drug recovery in po dosed dog urine. The class given is ADME, organism-based, Canis lupus familiaris. More on the design: dosed compound name Ruboxistaurin.
A short description of data set [12]: Drug recovery in po dosed rat urine. Type of data set: ADME, organism-based. More on the design: dosed compound name Ruboxistaurin.
Data set [13] is described as follows: Drug recovery in po dosed mouse feces. Type of data set: ADME, organism-based. More on the design: dosed compound name Ruboxistaurin.

As for `NC(=O)N1CCn2cc(C3=C(c4cnc5ccccn45)C(=O)NC3=O)c3cc(F)cc(c32)C1`, the Compound recovery was 0.1% in data set [1], 0% in [2] and 4.15% in [3].
Turning to `O=C(O)CCNC(=O)N1CCn2cc(C3=C(c4cnc5ccccn45)C(=O)NC3=O)c3cc(F)cc(c32)C1`, the Compound recovery in data set [3] was determined as 0%.
For `O=C1NC(=O)C(c2c[n+](O[C@@H]3O[C@H](C(=O)O)[C@@H](O)[C@H](O)[C@H]3O)c3ccccn23)=C1c1cn2c3c(cc(F)cc13)CN(C(=O)N1CCCCC1)CC2`, the Compound recovery in data set [4] is 5.42%; in data set [1] it was 12.66%; in [2], 18.81%.
Regarding `O=C(CCNC(=O)N1CCn2cc(C3=C(c4cnc5ccccn45)C(=O)NC3=O)c3cc(F)cc(c32)C1)NCCS(=O)(=O)O`, the Compound recovery in [3] is recorded as 6.76%.
For the molecule `CN(C)C[C@@H]1CCn2cc(c3ccccc32)C2=C(C(=O)NC2=O)c2cn(c3ccccc23)CCO1` [RUBOXISTAURIN], the Radiolabel recovery entry in [5] is reported as “<= 4%”; in [6] it was 83%; in data set [7], 83%; in [8], 83%; in data set [9], “<= 4%”; in [10], 59%. The Radiolabel recovery result is on record as “<= 4%” in [11], “<= 4%” in data set [12] and 83% in data set [13].

(Values after ChEMBL document CHEMBL3526091, “Pharmacokinetics, metabolism, and excretion of the glycogen synthase kinase-3 inhibitor LY2090314 in rats, dogs, and humans: a case study in rapid clearance by extensive metabolism with low circulating metabolite exposure” (Drug Metab Dispos, 2013).)
